Assay results published in patent US11596623B2, “Methods for treating virus infection or proliferation” (HOWARD UNIVERSITY, priority 2018, dated 2023).

Assays:
[1] = test system: HSV-1; test: Immunofluorescence and confocal microscopy of ICP0; format: cell-based; details: 10 μM, HSV-1 MOI 1.0, 30 h
Experimental: The HEp-2 cells were infected with HSV-1 at an MOI of 1.0 for 30 h along with the indicated compounds and control. The no-virus control (A), vehicle DMSO treated (B) and SD29-14 10 μM treated (C) cells were fixed with 4% paraformaldehyde and stained with anti-ICP0-FITC (green) and DAPI for DNA (blue) in the nucleus. The slides were observed under a Nikon confocal microscope (60× magnification lens) and pictures were taken to show infected cells (green) and total cells (DAPI). All scale bars correspond to 20 μm. The imaging experiments were performed three independent times, and the results shown represent one of the three experiments. (D) Quantification of fluorescent cells by Image based cell sorting in a Cellometer (Nexcelom Vision). […] The cells were prepared by immunostaining with ICP0 antibody after 24-h incubation with the indicated compounds. The total cell counts were 1.01×10^6/ml, 4.69×10^6/ml, and 5.36×10^6/ml for DMSO, SD29-14 (10 μM), and SD29-14 (100 μM) respectively. The numbers show the mean±SE of three replicates.
Hep-2 cells were grown to about 80% confluency in 12 well plate and the cells were co-infected with HSV-1 at an MOI of 1.0 for 30 h along with the indicated inhibitor compounds and control. The cells were fixed at room temperature with 4% paraformaldehyde-PBS for 15 minutes and then permeabilized at room temperature by 0.5% Triton X-100-PBS (pH 7.4) for 10 min. […]

[2] = test system: HSV-1; test: HSV-1 viral protein western blot in HEp-2 cells; format: cell-based; details: pre-treated 24 hours at 100 μM; 24 h after infection
Text: Panel A of FIG. 3 depicts time and concentration dependent virus protein expression to deduce an optimum drug treatment regimen. […] Tubulin expression was used as the loading control for the blots.
HEp-2 cells (ATCC) were used for the infection of HSV-1. The cells were maintained in Dulbecco's Modified Eagle's medium (DMEM) supplemented with 10% fetal calf serum (FCS) and 1% penicillin-streptomycin (PS). Wild-type HSV-1 17 was obtained from R. D. Everett and used previously
Proteins were separated by SDS-PAGE (25 μg loaded in each lane), transferred to nitrocellulose membranes (Amersham Inc., Piscataway, N.J., USA), and blocked with 5% nonfat milk for 60 min at room temperature. Membranes were incubated overnight at 4° C. with primary antibody, followed by incubation with a horseradish peroxidase-coupled secondary antibody and detection with enhanced chemiluminescence (Pierce, Rockford, Ill., USA), according to standard methods. Membranes were stripped with stripping buffer (100 mM 2-mercaptoethanol, 2% SDS, 62.5 mM Tris-HCl, pH 6.8), washed with PBS-0.1% Tween-20, and used to detect additional proteins. For Arabidopsis lysates one-week old seedlings were treated with 10 uM of ABA in the presence/absence of the inhibitor compounds for 12 hours in a growth chamber (overnight) at 22° C. mostly in the dark. […]

Structure (SMILES)	ICP0 protein expression (immunofluorescence) [1]	HSV-1 protein production (ICP0, ICP8, gD) [2]
Nn1c(S)nnc1-c1cc(Cl)cc(Cl)c1 [SD29-14]	effectively eliminated any expression of ICP0 protein	–
Nn1c(S)nnc1-c1ccc(F)cc1 [SD-29]	–	repressed HSV-1 protein production
